# In US5385842A, “Anthraquinones as inhibitors of sulfide production from sulfate-reducing bacteria” (E. I. Du Pont de Nemours and Company, priority 1993, dated 1995):
# Structures can show the parent of a compound that is named as a salt.
# Test system: Desulfovibrio desulfuricans G100A
# Assay: microbe, parasite or virus in culture
# Assay type: cell-based
# Details: Desulfovibrio desulfuricans, G100A, read-out: % Inhib. (inhibition of sulfide production)
SMILES,inhibition at 30 ppm,inhibition at 10 ppm,inhibition at 10 µg/mL
"O=C1c2ccccc2C(=O)c2c1cccc2S(=O)(=O)O [1-Anthraquinonesulfonic acid, Na salt]",3.9%,,
O=C1c2ccccc2C(=O)c2cc(CO)ccc21 [2-(Hydroxymethyl)anthraquinone],87%,,
"Cc1cc(O)c2c(c1O)C(=O)c1cccc(O)c1C2=O [Islandicin, 1,4,5-Trihydroxy-2-methyl-9,10-anthracenedione]",,50%,
Nc1cc2c(cc1O)C(=O)c1ccccc1C2=O [2-Amino-3-hydroxyanthraquinone],11.4%,,
"O=C1c2cc(Cl)c(Cl)cc2C(=O)c2c(O)ccc(O)c21 [6,7-Dichloro-1,4-dihydroxyanthraquinone]",5.7%,,
"COc1cccc2c1C(=O)c1c(O)c3c(c(O)c1C2=O)C[C@@](O)(C(C)=O)C[C@@H]3O[C@H]1C[C@H](N)[C@H](O)[C@H](C)O1 [Daunomycin hydrochloride, (8S-cis)-8-Acetyl-10[(3-amino-2,3,6-trideoxy-alpha-L-lyxo-hexopyranosyl)oxy]-7,8,9,10-tetrahydro-6,8,11-trihydroxy-1-methoxy-5,12-naphthacenedione hydrochloride, reference compound]",62.9%,,
"Nc1c(S(=O)(=O)O)cc(Nc2ccccc2)c2c1C(=O)c1ccccc1C2=O [Acid blue 25, 1-Amino-9,10-dihydro-9,10-dioxo-4-(phenylamino)-2-anthracenesulfonic acid, Na salt]",,26%,
"O=C1c2cccc(Cl)c2C(=O)c2c(Cl)cccc21 [1,8-Dichloroanthraquinone]",3.9%,,
"Oc1ccc2c(O)c3ccccc3cc2c1O [Anthrarobin, 1,2,10-Anthracenetriol]",,44.4%,
"O=C1c2cccc(OCc3ccccc3)c2C(=O)c2c(OCc3ccccc3)cccc21 [1,8-Dibenzyloxyanthraquinone, 1,8-Bis(phenylmethoxy)-9,10-anthracenedione]",4.5%,,
"O=C1c2c(Cl)ccc(Cl)c2C(=O)c2c(Cl)ccc(Cl)c21 [1,4,5,8-Tetrachloroanthraquinone]",50.6%,,
"Cc1ccc(Nc2ccc(Nc3ccc(C)cc3S(=O)(=O)O)c3c2C(=O)c2c(O)ccc(O)c2C3=O)c(S(=O)(=O)O)c1 [Acid green 41, 2,2'-[(9,10-Dihydro-5,8-dihydroxy-9,10-dioxo-1,4-anthracendiyl)diimino]bis[5-methylbenzenesulfonic acid], di Na salt]",,17.8%,
"O=C1c2cccc(O)c2C(=O)c2c(O)cc(CO)cc21 [Aloe-emodin, 1,8-Dihydroxy-3-(hydroxymethyl)-anthraquinone]",,43.8%,
CCc1ccc2c(c1)C(=O)c1ccccc1C2=O [2-Ethylanthraquinone],,,57.1%
"O=C1c2ccccc2C(=O)C2CC=CCC12 (stereo not drawn) [1,4,4a,9a-Tetrahydroanthraquinone]",,0 to 7%,
O=C1c2ccccc2C(=O)c2cc(NC(=O)C3CC3)ccc21 [2-(Cyclopropylcarboxamido)anthraquinone],2.6%,,
"O=C(Nc1cccc2c1C(=O)c1cccc(Nc3cccc4c3C(=O)c3cccc(NC(=O)c5ccccc5)c3C4=O)c1C2=O)c1ccccc1 [4,5'-Dibenzamido-1,1'-dianthrimide, N,N'-[Iminobis(9,10-dihydro-9,10-dioxo-5,1-anthracenediyl)]bisbenzamide]",0%,,
"Cc1ccc(Nc2ccc(Nc3ccc(C)cc3S(=O)(=O)O)c3c2C(=O)c2ccccc2C3=O)c(S(=O)(=O)O)c1 [Acid green 25, 2,2'-[(9,10-Dihydro-9,10-dioxo-1,4-anthracenediyl)-diimino]bis[5-methylbenzenesulfonic acid],di Na salt]",,38.8%,
"O=C1c2ccc(S(=O)(=O)O)cc2C(=O)c2ccc(S(=O)(=O)O)cc21 [Anthraquinone-2,6-disulfonic acid di Na salt]",,9.8%,
CC(C)(C)c1ccc2c(c1)C(=O)c1ccccc1C2=O [2-tert-butylanthraquinone],5.2%,,
"CCc1cc(CC)c(Nc2ccc(Nc3c(CC)cc(CC)cc3CC)c3c2C(=O)c2ccccc2C3=O)c(CC)c1 [1,4-Bis[(2,4,6-triethylphenyl)amino]-9,10-anthracenedione]",4.3%,,

SMILES,inhibition at 30 ppm,inhibition at 10 ppm,inhibition at 10 µg/mL
"CC(C)(C)C(=O)Nc1ccc2c(c1)C(=O)c1ccccc1C2=O [2-(2,2,2-Trimethylpropionamido)anthraquinone]",48.1%,,
O=C1c2ccccc2C(=O)c2ccccc21 [Anthraquinone],,37.5%,
"O=C(O)CN(CC(=O)O)Cc1cc2c(c(O)c1O)C(=O)c1ccccc1C2=O [Alizarin complexone dehydrate, (3,4-dihydroxy-2-anthraquinonyl)-methyliminodiacetic acid]",14.3%,,
"CNc1ccc(NCCO)c2c1C(=O)c1ccccc1C2=O [Disperse blue 3, 1-(2-Hydroxyethyl)amino-4-methylaminoanthraquinone]",6.4%,,
"O=C1c2ccc(O)c(O)c2C(=O)c2cccc(S(=O)(=O)O)c21 [Alizarin-5-sulfonic acid, 9,10-Dihydro-5,6-dihydroxy-9,10-dioxo-1-anthracenesulfonic acid]",7.1%,,
"O=C1c2ccc(S(=O)(=O)O)cc2C(=O)c2cc(S(=O)(=O)O)ccc21 [9,10-Dihydro-9,10-dioxo-2,7-anthracenedisulfonic acid, di Na salt]",9.1%,,
"CCCCCNc1ccc(NCCCCC)c2c1C(=O)c1ccccc1C2=O [Oil blue N, 1,4-Bis(pentylamino)-9,10-anthracenedione]",3.6%,,
"O=C1c2ccccc2C(=O)c2c(O)ccc(O)c21 [1,4-Dihydroxyanthraquinone]",5.2%,,
"O=C1c2ccccc2C(=O)c2c(O)c(S(=O)(=O)O)c(Oc3ccc(S(=O)(=O)O)cc3)c(O)c21 [2-Phenoxy quinizarin-3,4'-disulfonic acid, di K salt]",,28.1%,
"CCCCc1ccc(Nc2ccc(Nc3ccc(CCCC)cc3S(=O)(=O)O)c3c2C(=O)c2ccccc2C3=O)c(S(=O)(=O)O)c1 [Acid green 27, 2,2'-[(9,10-Dihydro-9,10-dioxo-1,4-anthracenediyl)-diimino]bis[5-butylbenzenesulfonic acid]]",,16.5%,
"O=C1c2ccc(O)cc2C(=O)c2c1ccc(O)c2O [Anthrapurpurin, 1,2,7-Trihydroxyanthraquinone]",,37.5%,
Cc1cc(Cl)c2c(c1N)C(=O)c1ccccc1C2=O [1-Amino-4-chloro-2-methylanthraquinone],5.2%,,
"O=C1c2c(O)ccc(O)c2C(=O)c2c(O)c(O)c(O)c(O)c21 [Alizarin cyanin, 1,2,3,4,5,8-Hexahydroxyanthraquinone]",,40.6%,
"Cc1cc(O)c2c(c1O)C(=O)c1cc(O)cc(O)c1C2=O [Catenarin, 1,4,5,7-Tetrahydroxy-2-methyl-9,10-anthracenedione]",,37.5%,
"CC(=O)OC1C=CCC2C(=O)c3cccc(O)c3C(=O)C12 (racemic) [(+,-)-1-Acetoxy-8-hydroxy-1,4,4a,9a-tetrahydroanthraquinone]",,28.1%,
"Nc1c(S(=O)(=O)O)ccc2c1C(=O)c1ccccc1C2=O [1-Aminoanthraquinone-2-sulfonic acid, 1-Amino-9,10-dihydro-9,10-dioxo-2-anthracenesulfonic acid]",37.5%,,
"Cc1ccc2c(c1-c1c(C)ccc3c1C(=O)c1ccccc1C3=O)C(=O)c1ccccc1C2=O [2,2'-Dimethyl-1,1'-bianthraquinone, 2,2'-Dimethyl-[1,1'-bianthracene]-9,9',10,10'-tetrone]",59.7%,,
"O=C1c2ccc(O)cc2C(=O)c2ccc(O)cc21 [2,6-Dihydroxyanthraquinone]",,28.2%,
"Nc1c(S(=O)(=O)O)cc(Br)c2c1C(=O)c1ccccc1C2=O [1-Amino-4-bromo-9,10-dihydro-9,10-dioxo-2-anthracene-sulfonic acid, Na salt]",,4.3%,
"Cc1cc(O)c2c(c1)C(=O)c1cc(O)cc(O)c1C2=O [Emodin, 6-Methyl-1,3,8-trihydroxyanthraquinone]",2.6%,,

# Test system: Desulfovibrio gigas
# Assay: Sulfide production by resting cells of D. gigas
# Assay type: cell-based
# Details: Desulfovibrio; 0.1 ppm; 3 hours at 31° C.
# Description: Experiments in this example were carried out using resting cells of Desulfovibrio gigas rather than growing cells as was the case for the autoanalyzer system employing the Desulfovibrio desulfuricans G100A strain. […] Thus the experiment examined a different organism, different test system, and a different physiological state for the phenomenon of anthraquinone inhibition of sulfide production by Desulfovibrio sp. Active compounds, as determined by the autoanalyzer, were evaluated in comparison with four additional compounds not evaluated in the autoanalyzer.
# 500 ml cultures of Desulfovibrio gigas were grown on standard BTZ-3 medium as previously described in Example 1 with 30 mM sodium lactate, 30 mM sodium sulfate and 30 mM sodium fumarate. The culture was harvested after 24 h of growth at 31° C. by centrifugation at 8000 rpm in a GSA Sorvall rotor for 20 minutes. The cell pellet was resuspended in 30 ml of incubation assay mixture of the following composition: 50 mM HEPES buffer pH 7 buffer, 2.5 mM sodium lactate, 2.5 mM sodium sulfate. This suspension was centrifuged again at 10,000 rpm in a Sorvall SS-34 rotor for 5 minutes. The resulting cell pellet was resuspended in 5 ml of incubation assay buffer. Cell densities were generally near 10e10 cells/mi.
# The samples were assayed for production in the presence of anthraquinones. 200 ul of the cell suspension was added to 1.2 ml of incubation assay mixture in a 5 ml capacity test tube. The tube was gassed with hydrogen gas for 20 minutes then the anthraquinones were added as ethanolic solutions, the tubes were then gassed with hydrogen again for 5 minutes. The reaction mixtures were then incubated for 3 hours at 31° C. The reactions were stopped by the addition of 200 ul of 1N sodium hydroxide. After 20 minutes the alkaline mixtures were centrifuged in a table top microfuge for 4 minutes at 14,000 rpm to remove cells and cell debris. The supernatant was then assayed for sulfide using the ferric chloride-DPD reagent system as described by Siegel et al., Anal. Blochem., 11:126-132, 1965, herein incorporated by reference.
row,SMILES,activity at 0.1 ppm
1,"O=C1c2ccccc2C(=O)c2cc(Br)ccc21 [2-bromoanthraquinone, 2-Bromoanthraquinone]",99%
2,"O=C1c2ccccc2C(=O)c2c(F)cccc21 [1-fluoroanthraquinone, 1-Fluoroanthraquinone]",105%

# Same assay, conditions: Desulfovibrio; 0.5 ppm; 3 hours at 31° C.
row,SMILES,activity at 0.5 ppm
1,"O=C1c2ccccc2C(=O)c2cc(Br)ccc21 [2-bromoanthraquinone, 2-Bromoanthraquinone]",33%
2,"O=C1c2ccccc2C(=O)c2c(F)cccc21 [1-fluoroanthraquinone, 1-Fluoroanthraquinone]",23%

# Same assay, conditions: Desulfovibrio; 2 ppm; 3 hours at 31° C.
row,SMILES,activity at 2 ppm
1,"O=C1c2ccccc2C(=O)c2cc(Br)ccc21 [2-bromoanthraquinone, 2-Bromoanthraquinone]",0.6%
2,"O=C1c2ccccc2C(=O)c2c(F)cccc21 [1-fluoroanthraquinone, 1-Fluoroanthraquinone]",0.9%

# Same assay, conditions: Desulfovibrio; 5 ppm; 3 hours at 31° C.
row,SMILES,activity at 5 ppm
1,"O=C1c2ccccc2C(=O)c2cc(Br)ccc21 [2-bromoanthraquinone, 2-Bromoanthraquinone]",0.6%
2,"O=C1c2ccccc2C(=O)c2c(F)cccc21 [1-fluoroanthraquinone, 1-Fluoroanthraquinone]",0.9%

# Same assay, conditions: resting cells
row,SMILES,inhibition of sulfide production (in words)
1,"O=C1c2ccccc2C(=O)c2cc(Br)ccc21 [2-bromoanthraquinone, 2-Bromoanthraquinone]",inhibitory effect
2,"O=C1c2ccccc2C(=O)c2c(F)cccc21 [1-fluoroanthraquinone, 1-Fluoroanthraquinone]",inhibitory effect
